Legend:
Sus scrofa = species: Sus scrofa; assay: Calcium antagonistic activity was evaluated from the inhibition of CaCl2-induced contraction of depolarized pig coronary artery; assay type: functional
[1] = target: T1, Adrenergic receptor alpha-2 (Rattus norvegicus, UniProt P22086+P19328+P22909); assay: Ability to inhibit [3H]yohimbine binding to alpha-2 adrenergic receptor of rat cerebral cortex preparation; assay type: tissue-based
T1 sequence (P22086 whole entry): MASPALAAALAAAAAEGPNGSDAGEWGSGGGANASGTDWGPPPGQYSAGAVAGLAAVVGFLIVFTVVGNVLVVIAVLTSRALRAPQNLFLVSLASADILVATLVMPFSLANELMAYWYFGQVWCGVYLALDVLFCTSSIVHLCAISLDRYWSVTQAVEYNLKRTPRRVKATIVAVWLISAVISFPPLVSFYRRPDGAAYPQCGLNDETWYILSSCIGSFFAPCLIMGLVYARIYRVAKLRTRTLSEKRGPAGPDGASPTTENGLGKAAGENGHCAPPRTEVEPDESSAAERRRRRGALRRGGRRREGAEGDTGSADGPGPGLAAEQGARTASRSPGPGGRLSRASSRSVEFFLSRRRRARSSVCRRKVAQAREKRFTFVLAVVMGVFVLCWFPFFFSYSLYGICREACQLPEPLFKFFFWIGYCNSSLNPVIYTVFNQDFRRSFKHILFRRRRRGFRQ
T1 sequence (P19328 whole entry): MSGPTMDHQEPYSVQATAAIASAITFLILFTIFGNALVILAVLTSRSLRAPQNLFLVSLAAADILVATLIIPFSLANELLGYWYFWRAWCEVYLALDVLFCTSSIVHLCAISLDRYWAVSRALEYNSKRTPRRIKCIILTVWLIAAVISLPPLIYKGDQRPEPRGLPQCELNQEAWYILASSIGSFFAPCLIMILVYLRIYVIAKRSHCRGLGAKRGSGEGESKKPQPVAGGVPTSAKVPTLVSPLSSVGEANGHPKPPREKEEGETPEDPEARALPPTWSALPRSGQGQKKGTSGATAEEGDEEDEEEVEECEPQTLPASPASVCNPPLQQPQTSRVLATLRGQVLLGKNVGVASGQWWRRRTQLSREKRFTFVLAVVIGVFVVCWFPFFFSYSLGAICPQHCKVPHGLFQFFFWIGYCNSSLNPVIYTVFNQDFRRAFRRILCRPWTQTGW
T1 sequence (P22909 whole entry): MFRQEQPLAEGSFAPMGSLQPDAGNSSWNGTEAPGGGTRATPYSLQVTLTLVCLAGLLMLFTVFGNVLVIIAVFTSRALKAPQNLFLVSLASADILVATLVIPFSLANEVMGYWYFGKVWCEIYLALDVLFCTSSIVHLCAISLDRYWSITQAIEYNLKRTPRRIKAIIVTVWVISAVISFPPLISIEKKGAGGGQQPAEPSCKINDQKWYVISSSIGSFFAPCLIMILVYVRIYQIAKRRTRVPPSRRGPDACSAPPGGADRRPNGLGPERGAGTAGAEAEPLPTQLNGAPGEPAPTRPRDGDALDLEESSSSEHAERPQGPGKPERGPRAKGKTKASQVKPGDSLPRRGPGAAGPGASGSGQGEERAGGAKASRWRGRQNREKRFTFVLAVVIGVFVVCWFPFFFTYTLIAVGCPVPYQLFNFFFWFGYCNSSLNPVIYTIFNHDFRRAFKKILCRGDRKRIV

[2] = target: T1, Adrenergic receptor alpha-2; assay: Alpha-2-adrenolytic activity was assessed from the ability to inhibit [3H]yohimbine binding to rat cerebral cortex preparation; assay type: tissue-based
[3] = target: T2, Adrenergic receptor alpha-2 (Homo sapiens, UniProt P08913+P18825+P18089); assay: Alpha-2-adrenolytic activity was assessed in vitro from the ability to inhibit norepinephrine binding to guinea pig vas deferens; set-up: species or system Cavia porcellus; conditions: target entry is the homologue from another species
T2 sequence (P08913 whole entry): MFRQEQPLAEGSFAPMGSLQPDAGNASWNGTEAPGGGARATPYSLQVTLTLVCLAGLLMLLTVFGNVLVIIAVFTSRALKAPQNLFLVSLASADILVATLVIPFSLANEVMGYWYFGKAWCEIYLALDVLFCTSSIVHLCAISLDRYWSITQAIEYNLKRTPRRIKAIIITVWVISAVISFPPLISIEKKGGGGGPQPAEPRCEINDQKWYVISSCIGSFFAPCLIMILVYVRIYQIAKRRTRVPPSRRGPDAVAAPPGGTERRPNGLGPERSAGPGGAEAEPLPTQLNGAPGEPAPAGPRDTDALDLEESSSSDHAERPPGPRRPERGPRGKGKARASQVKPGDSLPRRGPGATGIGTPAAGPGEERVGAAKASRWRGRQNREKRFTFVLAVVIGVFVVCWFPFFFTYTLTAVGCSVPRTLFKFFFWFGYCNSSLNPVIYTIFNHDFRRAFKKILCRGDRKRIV
T2 sequence (P18825 whole entry): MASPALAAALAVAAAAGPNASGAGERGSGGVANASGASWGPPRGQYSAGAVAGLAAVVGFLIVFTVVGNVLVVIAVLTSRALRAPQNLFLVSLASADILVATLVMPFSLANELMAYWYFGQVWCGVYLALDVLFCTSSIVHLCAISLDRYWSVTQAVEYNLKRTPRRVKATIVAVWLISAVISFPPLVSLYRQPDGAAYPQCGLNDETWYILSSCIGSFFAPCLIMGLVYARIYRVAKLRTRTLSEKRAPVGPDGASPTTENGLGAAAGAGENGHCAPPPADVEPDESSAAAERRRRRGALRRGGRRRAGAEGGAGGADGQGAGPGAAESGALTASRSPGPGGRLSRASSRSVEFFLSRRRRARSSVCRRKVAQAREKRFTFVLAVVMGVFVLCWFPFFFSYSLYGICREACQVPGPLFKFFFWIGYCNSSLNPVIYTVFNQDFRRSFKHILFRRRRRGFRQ
T2 sequence (P18089 whole entry): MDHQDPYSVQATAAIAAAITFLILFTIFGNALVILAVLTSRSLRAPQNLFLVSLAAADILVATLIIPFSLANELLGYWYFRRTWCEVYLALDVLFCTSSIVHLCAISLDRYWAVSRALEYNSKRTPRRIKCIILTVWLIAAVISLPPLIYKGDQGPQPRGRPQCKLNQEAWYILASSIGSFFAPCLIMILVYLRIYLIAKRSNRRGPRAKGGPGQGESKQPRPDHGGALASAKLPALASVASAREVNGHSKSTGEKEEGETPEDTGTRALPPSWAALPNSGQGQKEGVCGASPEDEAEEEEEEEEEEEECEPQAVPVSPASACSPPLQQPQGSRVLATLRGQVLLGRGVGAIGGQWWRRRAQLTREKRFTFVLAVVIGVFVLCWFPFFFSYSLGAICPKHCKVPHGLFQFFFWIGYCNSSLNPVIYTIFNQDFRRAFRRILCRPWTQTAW

SMILES | IC50 (Sus scrofa; Sus scrofa, Coronary artery) | IC50 [1] | IC50 (Sus scrofa) | IC50 [2] | IC50 [3]
CO/C(O)=C1\C(C)=NC(C)=C(C(=O)OCCN(C)CC2COc3ccccc3O2)C1c1ccccc1[N+](=O)[O-] (centres undefined) | 4 nM | 270 nM |  |  | 
COC(=O)C1=C(C)NC(C)=C(C(=O)OCCN(C)C[C@H]2COc3ccccc3O2)[C@@H]1c1cccc([N+](=O)[O-])c1.Cl (stereo in doubt; 6b) |  | 140 nM | 10 nM |  | 
CO/C(O)=C1\C(C)=NC(C)=C(C(=O)OCCN(C)C(C)COc2ccccc2)C1c1cccc([N+](=O)[O-])c1.Cl (centres undefined) | 13 nM | 480 nM |  |  | 
COC(=O)C1=C(C)NC(C)=C(C(=O)OCCN(C)C[C@H]2COc3ccccc3O2)[C@@H]1c1cccc([N+](=O)[O-])c1.Cl (stereo in doubt; 6a) |  | 4000 nM | 1.5 nM |  | 
CO/C(O)=C1\C(C)=NC(C)=C(C(=O)OCCN(C)CC2COc3ccccc3O2)C1c1cccc([N+](=O)[O-])c1.Cl (centres undefined) | 4.5 nM | 480 nM |  |  | 
CO/C(O)=C1\C(C)=NC(C)=C(C(=O)OCCN(C)C(c2ccccc2)C2CCCCC2)C1c1cccc([N+](=O)[O-])c1.Cl (centres undefined) | > 10000 nM | 16000 nM |  |  | 
CO/C(O)=C1\C(C)=NC(C)=C(C(=O)OC(C)CN(C)CC2COc3ccccc3O2)C1c1cccc([N+](=O)[O-])c1.Cl (centres undefined) | 3.8 nM | 470 nM |  |  | 
CO/C(O)=C1\C(C)=NC(C)=C(C(=O)OCCN2CCC(n3c(O)nc4ccccc43)CC2)C1c1cccc([N+](=O)[O-])c1 (centres undefined) | 1000 nM | 1600 nM |  |  | 
CC1=NC(C)=C(C(=O)OC(C)CN(C)CC2COc3ccccc3O2)C(c2cccc([N+](=O)[O-])c2)/C1=C(\O)OC(C)C.Cl (centres undefined) | 150 nM |  |  | 2000 nM | >> 1e-6 M
